Source: patent publication US20140011799A1 (Bristol-Myers Squibb Company, priority 2012, published 2014)
“And” between values parts separate entries of the source, which are not always exact repeats. Identical values can stand only once. Like-named read-outs stand apart in the source and are kept apart here.

Experiments:
[1] = target: T1, Endothelial lipase (EL) (Homo sapiens, UniProt Q9Y5X9); test: Endothelial lipase (EL) enzymatic assay, fluorescent substrate A10070 in DMPG vesicles; assay type: biochemical; conditions: compound preincubated 30 min at 37° C
T1 construct: HT-1080 cells that were transformed using RAGE technology (Athersys) to overexpress endogenous EL; endogenous in cells; conditioned medium used
T1 sequence (Q9Y5X9 21-500): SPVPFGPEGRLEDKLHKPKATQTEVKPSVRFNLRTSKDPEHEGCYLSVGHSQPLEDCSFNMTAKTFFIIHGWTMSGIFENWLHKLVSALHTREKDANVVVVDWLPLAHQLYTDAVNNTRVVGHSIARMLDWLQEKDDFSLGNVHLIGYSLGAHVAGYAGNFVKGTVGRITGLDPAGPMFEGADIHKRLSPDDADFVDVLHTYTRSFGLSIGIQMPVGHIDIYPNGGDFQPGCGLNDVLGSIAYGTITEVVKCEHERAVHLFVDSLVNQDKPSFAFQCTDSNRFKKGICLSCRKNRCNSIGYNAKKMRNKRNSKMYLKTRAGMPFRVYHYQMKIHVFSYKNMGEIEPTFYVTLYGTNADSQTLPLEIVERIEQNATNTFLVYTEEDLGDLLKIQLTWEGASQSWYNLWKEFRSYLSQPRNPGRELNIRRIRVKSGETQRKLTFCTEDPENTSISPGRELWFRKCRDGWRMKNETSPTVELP
Outline: (§1)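 Substrate A10070 sits in sonicated DMPG vesicles at 0.11 mole fraction. Lipase and compound preincubated 30 min, 37° C, in HEPES pH 8.0 buffer with CaCl2.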

[2] = target: T2, hepatic lipase (HL) (Homo sapiens, UniProt P11150); test: Hepatic lipase (HL) enzymatic assay, fluorescent substrate A10070 in DMPG vesicles; assay type: biochemical; conditions: compound preincubated 30 min at 37° C
T2 construct: made in house; host or cells: COS cells (conditioned medium, partially purified)
T2 sequence (P11150 23-499): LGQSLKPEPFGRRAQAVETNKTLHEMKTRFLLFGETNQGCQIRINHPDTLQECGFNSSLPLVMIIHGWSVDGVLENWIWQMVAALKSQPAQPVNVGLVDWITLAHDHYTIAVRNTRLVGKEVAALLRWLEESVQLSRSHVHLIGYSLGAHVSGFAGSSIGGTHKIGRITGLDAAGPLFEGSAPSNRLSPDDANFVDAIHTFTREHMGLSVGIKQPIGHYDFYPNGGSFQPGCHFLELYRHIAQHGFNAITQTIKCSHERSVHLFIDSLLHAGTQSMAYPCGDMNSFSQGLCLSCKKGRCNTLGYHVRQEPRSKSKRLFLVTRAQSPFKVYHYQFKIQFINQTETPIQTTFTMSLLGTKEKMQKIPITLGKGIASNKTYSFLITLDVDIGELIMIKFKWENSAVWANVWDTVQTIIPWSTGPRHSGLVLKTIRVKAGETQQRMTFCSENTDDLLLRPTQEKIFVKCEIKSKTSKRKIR
Outline: as §1

[3] = EL from conditioned media of HT-1080 cells, read-out: EL IC50
[4] = HL partially purified from conditioned media of COS cells, read-out: HL IC50

Row | SMILES | IC50 [1, 3] | IC50 [2, 4] | IC50 ([1]; EL IC50, EL from conditioned media of HT-1080 cells) | IC50 ([2]; HL IC50, HL partially purified from conditioned media of COS cells)
1 | C=CCS(=O)(=O)C(c1nnc(CNS(N)(=O)=O)o1)c1nc2ccc(-c3ccccc3)cc2s1 (stereo not drawn) [Example 120, N-((5-((allylsulfonyl)(6-phenyl-1,3-benzothiazol-2-yl)methyl)-1,3,4-oxadiazol-2-yl)methyl)sulfamide] | < 10 nM | < 10 nM | – | –
2 | NCCS(=O)(=O)C(c1nnc(CC2SC(=O)NC2=O)o1)c1nc2cc(F)c(-c3ccccc3)cc2s1 (stereo not drawn) [Example 186, 5-((5-(((2-aminoethyl)sulfonyl)(5-fluoro-6-phenyl-1,3-benzothiazol-2-yl)methyl)-1,3,4-oxadiazol-2-yl)methyl)-1,3-thiazolidine-2,4-dione] | < 10 nM | 49 nM | – | –
3 | NS(=O)(=O)NCc1nnc(C(c2nc3ccc(-c4cccc(C(=O)N5CCC(=O)CC5)c4)cc3s2)S(=O)(=O)CCC(F)(F)F)o1 (stereo not drawn) [Example 194, N-((5-((6-(3-((4-oxo-1-piperidinyl)carbonyl)phenyl)-1,3-benzothiazol-2-yl)((3,3,3-trifluoropropyl)sulfonyl)methyl)-1,3,4-oxadiazol-2-yl)methyl) sulfamide] | – | – | < 10 nM | 171 nM
4 | CS(=O)(=O)C(c1nnc(CNS(N)(=O)=O)o1)c1nc2ccc(-c3cccc(C(=O)Nc4cccnc4)c3)cc2s1 (stereo not drawn) [Example 263, 3-{2-[methanesulfonyl({5-[(sulfamoylamino)methyl]-1,3,4-oxadiazol-2-yl})methyl]-1,3-benzothiazol-6-yl}-N-(pyridin-3-yl) benzamide] | 4 nM | 26 nM | – | –
5 | CC1(Cc2nnc(C(c3nc4ccc(-c5cccc(C(=O)NC6CC6)c5)cc4s3)S(C)(=O)=O)o2)NC(=O)NC1=O (stereo not drawn) [Example 225, N-cyclopropyl-3-{2-[methanesulfonyl({5-[(4-methyl-2,5-dioxo-imidazolidin-4-yl)methyl]-1,3,4-oxadiazol-2-yl})methyl]-1,3-benzothiazol-6-yl}benzamide] | 5 nM | 51 nM | – | –
6 | CS(=O)(=O)C(c1nnc(CNS(N)(=O)=O)o1)c1nc2cc(-c3ccccc3)ccc2s1 (stereo not drawn) [Example 249, N-({5-[methanesulfonyl(5-phenyl-1,3-benzothiazol-2-yl)methyl]-1,3,4-oxadiazol-2-yl}methyl) aminosulfonamide] | 1 nM | 1 nM | – | –
7 | CS(=O)(=O)C(c1nnc(CC2SC(=O)NC2=O)o1)c1nc2cc(C(F)(F)F)c(-c3ccccc3)cc2s1 (stereo not drawn) [Example 164, 5-((5-((methylsulfonyl)(6-phenyl-5-(trifluoromethyl)-1,3-benzothiazol-2-yl)methyl)-1,3,4-oxadiazol-2-yl)methyl)-1,3-thiazolidine-2,4-dione] | < 10 nM | 22 nM | – | –
8 | CC(O)CCNC(=O)Cc1nnc(C(c2nc3ccc(-c4ccc(C(=O)N5CCOCC5)cc4)cc3s2)S(=O)(=O)Cc2ccccc2)o1 (stereo not drawn) [Example 177, 2-(5-((benzylsulfonyl)(6-(4-(4-morpholinylcarbonyl)phenyl)-1,3-benzothiazol-2-yl)methyl)-1,3,4-oxadiazol-2-yl)-N-(3-hydroxybutyl) acetamide] | 14 nM | 591 nM | – | –
9 | CS(=O)(=O)C(c1nnc(CNS(N)(=O)=O)o1)c1nc2ccc(-c3cccc(C(=O)N4CC(F)(F)C4)c3)cc2s1 (stereo not drawn) [Example 202, N-((5-((6-(3-((3,3-difluoro-1-azetidinyl)carbonyl)phenyl)-1,3-benzothiazol-2-yl)(methylsulfonyl)methyl)-1,3,4-oxadiazol-2-yl)methyl)sulfamide] | < 10 nM | 35 nM | – | –
10 | NS(=O)(=O)NCc1nnc(C(c2nc3ccc(-c4ccc(F)nc4)cc3s2)S(=O)(=O)Cc2ccc(C(F)(F)F)cc2)o1 (stereo not drawn) [Example 238, N-[(5-{[6-(6-fluoropyridin-3-yl)-1,3-benzothiazol-2-yl] [4-(trifluoromethyl)phenyl]methanesulfonylmethyl}-1,3,4-oxadiazol-2-yl)methyl]aminosulfonamide] | 4 nM | 18 nM | – | –
11 | C#CCNC(=O)c1cccc(-c2ccc3nc(C(c4nnc(CNS(N)(=O)=O)o4)S(C)(=O)=O)sc3c2)c1 (stereo not drawn) [Example 265, 3-{2-[methanesulfonyl({5-[(sulfamoylamino)methyl]-1,3,4-oxadiazol-2-yl})methyl]-1,3-benzothiazol-6-yl}-N-(prop-2-yn-1-yl) benzamide] | 6 nM | 19 nM | – | –
12 | CS(=O)(=O)C(c1nnc(CC2SC(=O)NC2=O)o1)c1nc2ccc(-c3cnc(OCc4ccccc4)nc3)cc2s1 (stereo not drawn) [Example 104, 5-((5-((6-(2-(benzyloxy)-5-pyrimidinyl)-1,3-benzothiazol-2-yl)(methylsulfonyl)methyl)-1,3,4-oxadiazol-2-yl)methyl)-1,3-thiazolidine-2,4-dione] | < 10 nM | < 10 nM and 11 nM | – | –
13 | Cc1cc(-c2ccc3nc(C(c4nnc(CNS(N)(=O)=O)o4)S(C)(=O)=O)sc3c2)n(C)n1 (stereo not drawn) [Example 118, N-[(5-{[6-(1,3-dimethyl-1H-pyrazol-5-yl)-1,3-benzothiazol-2-yl](methylsulfonyl)methyl}-1,3,4-oxadiazol-2-yl)methy] sulfuric diamide] | 18 nM | 396 nM | – | –
14 | COCCS(=O)(=O)C(c1nnc(CC(=O)NC2CC2)o1)c1nc2ccc(-c3ccc(F)nc3)cc2s1 (stereo not drawn) [Example 250, N-cyclopropyl-2-(5-{[6-(6-fluoropyridin-3-yl)-1,3-benzothiazol-2-yl] (2-methoxyethanesulfonyl)methyl}-1,3,4-oxadiazol-2-yl)acetamide] | 194 nM | 306 nM | – | –
15 | CC(C)(C)OC(=O)c1cccc(-c2ccc3nc(C(c4nnc(CC5(C)NC(=O)NC5=O)o4)S(C)(=O)=O)sc3c2)c1 (stereo not drawn) [Example 203, tert-butyl 3-{2-[methanesulfonyl ({5-[(4-methyl-2,5-dioxoimidazolidin-4-yl)methyl]-1,3,4-oxadiazol-2-yl})methyl]-1,3-benzothiazol-6-yl}benzoate] | 33 nM | 2 nM | – | –
16 | COC1(C)CN(C(=O)c2cccc(-c3ccc4nc(C(c5nnc(CC6(C)NC(=O)NC6=O)o5)S(C)(=O)=O)sc4c3)c2)C1 (stereo not drawn) [Example 222, 5-({5-[methanesulfonyl({6-[3-(3-methoxy-3-methyl-azetidine-1-carbonyl)phenyl]-1,3-benzothiazol-2-yl})methyl]-1,3,4-oxadiazol-2-yl}methyl)-5-methyl-imidazolidine-2,4-dione] | 8 nM | 162 nM | – | –
17 | Cc1nc(C)c(-c2ccc3nc(C(c4nnc(CC5SC(=O)NC5=O)o4)S(C)(=O)=O)sc3c2)s1 (stereo not drawn) [Example 102, 5-((5-((6-(2,4-dimethyl-1,3-thiazol-5-yl)-1,3-benzothiazol-2-yl)(methylsulfonyl)methyl)-1,3,4-oxadiazol-2-yl)methyl)-1,3-thiazolidine-2,4-dione] | < 10 nM | < 10 nM | – | –
18 | CC1(Cc2nnc(C(c3nc4ccc(-c5cccc(C(=O)N6CC(F)(F)C6)c5)cc4s3)S(C)(=O)=O)o2)NC(=O)NC1=O (stereo not drawn) [Example 208, 5-{[5-({6-[3-(3,3-difluoroazetidine-1-carbonyl)phenyl]-1,3-benzothiazol-2-yl} (methanesulfonyl)methyl)-1,3,4-oxadiazol-2-yl]methyl}-5-methyl-imidazolidine-2,4-dione] | 177 nM | 131 nM | – | –
